{
  "source": "paper PMC8700709",
  "about": "“Cannabidiol Inhibits Tau Aggregation In Vitro” (Cells, 2021)",
  "target": "T1, tau protein 1N/4R isoform (Homo sapiens, UniProt P10636)",
  "T1 construct": "gene MAPT; recombinant human His-tagged tau 1N/4R isoform, expressed in E. coli BL21(DE3)",
  "T1 sequence (P10636 1-412 isoform P10636-7)": "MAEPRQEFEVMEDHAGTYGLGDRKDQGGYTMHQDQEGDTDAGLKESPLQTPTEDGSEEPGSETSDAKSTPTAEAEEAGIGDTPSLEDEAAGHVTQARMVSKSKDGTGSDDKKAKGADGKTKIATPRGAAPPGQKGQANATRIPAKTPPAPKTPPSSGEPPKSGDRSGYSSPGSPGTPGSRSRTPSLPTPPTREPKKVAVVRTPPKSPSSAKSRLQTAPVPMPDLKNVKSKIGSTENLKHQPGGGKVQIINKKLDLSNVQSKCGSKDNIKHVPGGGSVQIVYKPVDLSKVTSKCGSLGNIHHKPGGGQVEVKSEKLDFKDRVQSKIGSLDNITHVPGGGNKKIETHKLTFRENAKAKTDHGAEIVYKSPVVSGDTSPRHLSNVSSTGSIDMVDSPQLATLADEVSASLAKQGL",
  "test": "intrinsic Tyr fluorescence quenching titration (Stern-Volmer/Hill; Kb at […] °C), Job's plot […]; supported by ThT aggregation assay, CD and AFM",
  "type": "binding",
  "conditions": "read-out: Kb×10^4(M^-1) (converted)",
  "data": [
    {"compound": "C=C(C)[C@@H]1CCC(C)=C[C@H]1c1c(O)cc(CCCCC)cc1O", "note": "[Cannabidiol]", "values": [
      {"measurement": "Kd", "result": 23.8, "unit": "µM"}
    ]}
  ]
}
